pIC50: −log10 of the molar value. “Also recorded” adds a separate entry of the source.
Columns and labels:
[1] = system: Leishmania donovani promastigotes; type: cell-based
[2] = system: various clinical isolates of L. donovani; conditions: read-out: lowest IC50, L. donovani isolates obtained from Ethiopia; ref 38 (Patterson et al); cited from earlier work
[3] = cited from earlier work
[4] = co-administered with tenofovir, efavirenz, ritonavir and rifampin; cited from earlier work
[5] = system: L. mexicana; conditions: read-out: IC50 on L. mexicana; ref 28 (Berry et al); cited from earlier work
[6] = system: intracellular amastigote stages of L. donovani; assay: Synergy evaluation, combination index method with amphotericin B; type: cell-based, Leishmania donovani
[7] = system: L. donovani promastigotes; conditions: read-out: IC50 on L. donovani promastigotes; ref 38 (Patterson et al); cited from earlier work

Structure (SMILES) | inhibition of promastigotes in primary screening ([1]; 1 μM, 72 h, average of two independent experiments in triplicate) | dose-dependent inhibitory effect in subsequent dose titration assay ([1]; promastigotes) | pIC50 [2] | renal excretion [3] | volume of distribution ([3]; in words) | interaction with anti-retroviral and anti-TB drugs [4] | pIC50 [5] | synergistic activity with amphotericin B [6] | pIC50 [7]
CC(C)(C)C(O)C(Oc1ccc(-c2ccccc2)cc1)n1cncn1 (stereo not drawn) [MMV688942] | considerable activity | failed to demonstrate a dose-dependent inhibitory effect | – | – | – | – | – | – | –
C[C@]1(COc2ccc(N3CCC(Oc4ccc(OC(F)(F)F)cc4)CC3)cc2)Cn2cc([N+](=O)[O-])nc2O1 [MMV688262, delamanid] | – | – | 7.06 | < 5% | high volume of distribution | no clinically relevant interaction | 5.75 | synergistic effect; also recorded: synergistic activity | 7.82

Source: article PMC7130106 (Drug Design, Development and Therapy, 2020)
